Data reported in ChEMBL document CHEMBL3714728, “Substituted benzoylamino-indan-2-carboxylic acids and related compounds” (2010).

The compounds below were run against T1, C-X-C chemokine receptor type 5 (Homo sapiens, UniProt P32302) (assay: Antagonist activity against human CXCR5 expressed in RBL cells assessed as inhibition of human CXCL13-induced intracellular Ca2+ level by fluo-4/AM dye based FLIPR assay).
T1 sequence (P32302 whole entry): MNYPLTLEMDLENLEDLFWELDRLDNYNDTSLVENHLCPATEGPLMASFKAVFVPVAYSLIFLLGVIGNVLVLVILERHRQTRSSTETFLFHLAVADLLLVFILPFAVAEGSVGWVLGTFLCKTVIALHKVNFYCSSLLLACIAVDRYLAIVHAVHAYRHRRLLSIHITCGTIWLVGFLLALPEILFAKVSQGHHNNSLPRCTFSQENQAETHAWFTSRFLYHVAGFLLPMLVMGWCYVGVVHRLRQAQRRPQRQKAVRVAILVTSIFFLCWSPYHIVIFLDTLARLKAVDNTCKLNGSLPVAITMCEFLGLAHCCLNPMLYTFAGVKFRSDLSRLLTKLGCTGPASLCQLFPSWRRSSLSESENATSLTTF
Format: functional, cell-based

Structure (SMILES)	IC50
Cc1cccc(C(=O)NC2(C(=O)O)Cc3ccc(C(=O)O)cc3C2)c1OC(C)C (stereo unspecified)	> 30000 nM
CCC/C=C/c1c(C)cccc1C(=O)NC1(C(=O)O)Cc2ccccc2C1	446 nM
Cc1cccc(C(=O)NC2(C(=O)O)Cc3ccc(F)cc3C2)c1OC(C)C (stereo unspecified)	537 nM
COc1ccc2c(c1)CC(NC(=O)c1cccc(C)c1OC(C)C)(C(=O)O)C2 (stereo unspecified)	18200 nM
O=C(NC1(C(=O)O)Cc2ccccc2C1)c1cccc2[nH]ccc12	> 30000 nM
Cc1cccc(C(=O)N(C)C2(C(=O)O)Cc3ccccc3C2)c1OC(C)C	> 30000 nM
Cc1cccc(C(=O)NC2(C(=O)O)Cc3ccccc3C2)c1OCC1CC1	2930 nM
O=C(NC1(C(=O)O)Cc2ccc(F)cc2C1)c1cc(Cl)cc(Cl)c1OC1CCC1 (stereo unspecified)	268 nM
O=C(O)C1(NS(=O)(=O)c2cccc3cccnc23)Cc2ccccc2C1	> 30000 nM
C=CCOc1c(Cl)cccc1C(=O)NC1(C(=O)O)Cc2ccccc2C1	3650 nM
O=C(NC1(C(=O)O)Cc2ccccc2C1)c1cncc2ccccc12	> 30000 nM
CCOc1ccc2ccccc2c1C(=O)NC1(C(=O)O)Cc2ccccc2C1	19600 nM
CC(C)=Cc1c(C)cccc1C(=O)NC1(C(=O)O)Cc2ccccc2C1	33 nM
C=CCOc1c(Cl)cc(Cl)cc1S(=O)(=O)NC1(C(=O)O)Cc2ccccc2C1	13000 nM
O=C(NC1(C(=O)O)Cc2ccccc2C1)c1cccc2cc[nH]c12	> 30000 nM
CCCCCc1c(C)cccc1C(=O)NC1(C(=O)O)Cc2ccccc2C1	2300 nM
O=C(NC1(C(=O)O)Cc2ccccc2C1)c1cccc2c1OCCO2	> 30000 nM
CC(C)=Cc1c(C)cccc1C(=O)NC1(C(=O)O)Cc2cc(F)c(F)cc2C1	15 nM
Cc1cccc(C(=O)NC2(C(=O)O)CCSCC2)c1OC(C)C	24000 nM
CC/C=C(/CC)c1c(C)cccc1C(=O)NC1(C(=O)O)Cc2ccccc2C1	15200 nM
O=C(NC1(C(=O)O)Cc2ccccc2C1)c1cccc2ccccc12	5450 nM

Structure (SMILES)	IC50
CCCc1c(C)cccc1C(=O)NC1(C(=O)O)Cc2ccc(F)cc2C1 (stereo unspecified)	47 nM
O=C(NC1(C(=O)O)Cc2ccccc2C1)c1ccc(F)c2ccccc12	13000 nM
CC(C)=Cc1c(C(=O)NC2(C(=O)O)Cc3ccccc3C2)cccc1C(F)(F)F	26 nM
CC(C)Oc1c(Cl)cc(Cl)cc1S(=O)(=O)NC1(C(=O)O)Cc2ccccc2C1	16000 nM
CCCC(CC)c1c(C)cccc1C(=O)NC1(C(=O)O)Cc2ccccc2C1 (stereo unspecified)	3870 nM
Cc1cccc(C(=O)NC2(C(=O)O)Cc3ccc(C(N)=O)cc3C2)c1OC(C)C (stereo unspecified)	> 30000 nM
O=C(NC1(C(=O)O)Cc2ccccc2C1)c1cccc2cccnc12	> 30000 nM
Cc1cccc(C(=O)NC2(C(=O)O)Cc3ccc(C(F)(F)F)cc3C2)c1OC1CCC1 (stereo unspecified)	7800 nM
Cc1cccc(C(=O)NC2(C(=O)O)Cc3ccc(C(F)(F)F)cc3C2)c1OC(C)C (stereo unspecified)	14800 nM
O=C(NC1(C(=O)O)Cc2ccccc2C1)c1cnc2ccccc2n1	> 30000 nM
CCCC#Cc1c(C)cccc1C(=O)NC1(C(=O)O)Cc2ccccc2C1	19300 nM
CCC/C=C\c1c(C)cccc1C(=O)NC1(C(=O)O)Cc2ccccc2C1	99 nM
O=C(NC1(C(=O)O)Cc2ccccc2C1)c1cc(F)cc2c1OCOC2	30000 nM
C/C=C/c1c(C)cccc1C(=O)NC1(C(=O)O)Cc2ccc(F)cc2C1 (stereo unspecified)	200 nM
Cc1cccc(C(=O)NC2(C(=O)O)Cc3ccc(C#N)cc3C2)c1OC(C)C (stereo unspecified)	20500 nM
CC(C)=Cc1c(C)cccc1C(=O)NC1(C(=O)O)Cc2ccc(F)cc2C1 (stereo unspecified)	11 nM
Cc1cccc(C(=O)NC2(C(=O)O)Cc3ccccc3C2)c1CCC1CC1	97 nM
CC(C)=Cc1c(C)cccc1C(=O)NC1(C(=O)O)Cc2ccc(Cl)cc2C1 (stereo unspecified)	9 nM
CCC(C)Oc1c(C)cccc1C(=O)NC1(C(=O)O)Cc2ccccc2C1 (stereo unspecified)	1080 nM
Cc1cccc(C(=O)NC2(C(=O)O)Cc3ccccc3C2)c1/C=C/C1CC1	8200 nM

More lines, now with the values ahead:

IC50	Structure (SMILES)
14 nM	Cc1cccc(C(=O)NC2(C(=O)O)Cc3ccccc3C2)c1CC(C)C
> 30000 nM	NC(=O)c1ccc2c(c1)CC(NC(=O)c1cccc3c1CCCC3)(C(=O)O)C2 (stereo unspecified)
17 nM	Cc1cccc(C(=O)NC2(C(=O)O)Cc3cc(F)c(F)cc3C2)c1CC(C)C
45 nM	CCCc1c(C)cccc1C(=O)NC1(C(=O)O)Cc2cc(F)c(F)cc2C1
30000 nM	N#Cc1ccc2c(c1)CC(NC(=O)c1cccc3c1CCCC3)(C(=O)O)C2 (stereo unspecified)
6100 nM	O=C(NC1(C(=O)O)Cc2ccc(C(F)(F)F)cc2C1)c1cccc2c1CCCC2 (stereo unspecified)
5 nM	CC(C)=Cc1c(C)cccc1C(=O)NC1(C(=O)O)Cc2ccc(F)c(F)c2C1 (stereo unspecified)
470 nM	Cc1cccc(C(=O)NC2(C(=O)O)Cc3ccccc3C2)c1OC1CCC1
27000 nM	Cc1cc2c(cc1C)CC(NC(=O)c1cccc(C)c1OC(C)C)(C(=O)O)C2
> 30000 nM	Cc1cccc(C(=O)NC2(C(=O)O)Cc3ccc(C(N)=O)cc3C2)c1OC1CCC1 (stereo unspecified)
38 nM	CC(C)=Cc1c(C)cccc1C(=O)NC1(C(=O)O)Cc2c(F)ccc(F)c2C1
1050 nM	Cc1cccc(C(=O)NC2(C(=O)O)Cc3ccccc3C2)c1C1=CCCCC1
17400 nM	Cc1cccc(C(=O)NC2(C(=O)O)Cc3c(C)sc(C)c3C2)c1OC(C)C
2850 nM	Cc1sc(C)c2c1CC(NC(=O)c1cccc3c1CCCC3)(C(=O)O)C2
13 nM	Cc1cccc(C(=O)NC2(C(=O)O)Cc3ccc(F)cc3C2)c1C1=CCCC1 (stereo unspecified)
533 nM	Cc1cccc(C(=O)NC2(C(=O)O)Cc3ccccc3C2)c1C1CCCC1
380 nM	Cc1cccc(C(=O)NC2(C(=O)O)Cc3ccc(F)cc3C2)c1OC1CCC1 (stereo unspecified)
9500 nM	COc1ccc2c(c1)CC(NC(=O)c1cccc3c1CCCC3)(C(=O)O)C2 (stereo unspecified)
> 30000 nM	O=C(NC1(C(=O)O)Cc2ccccc2C1)c1cccc2c1NCCC2
232 nM	C/C=C/c1c(C)cccc1C(=O)NC1(C(=O)O)Cc2ccccc2C1
298 nM	O=C(NC1(C(=O)O)Cc2ccc(F)cc2C1)c1cccc2c1CCCC2 (stereo unspecified)
> 30000 nM	Cc1cccc(C(=O)NC2(C(=O)O)Cc3ccc(C(=O)O)cc3C2)c1OC1CCC1 (stereo unspecified)
15 nM	Cc1cccc(C(=O)NC2(C(=O)O)Cc3ccc(F)cc3C2)c1CC(C)C (stereo unspecified)
10100 nM	Cc1cccc(C(=O)NC2(C(=O)O)Cc3ccc(C#N)cc3C2)c1OC1CCC1 (stereo unspecified)
> 30000 nM	O=C(O)c1ccc2c(c1)CC(NC(=O)c1cccc3c1CCCC3)(C(=O)O)C2 (stereo unspecified)
7 nM	Cc1cccc(C(=O)N[C@@]2(C(=O)O)Cc3ccc(F)cc3C2)c1CC(C)C (single isomer, unassigned)
30 nM	Cc1cccc(C(=O)N[C@]2(C(=O)O)Cc3ccc(F)cc3C2)c1CC(C)C (single isomer, unassigned)
675 nM	O=C(NC1(C(=O)O)Cc2ccccc2C1)c1cccc2c1CCCC2
56 nM	Cc1cccc(C(=O)NC2(C(=O)O)Cc3ccccc3C2)c1C1=CCCC1
23 nM	CCCc1c(C)cccc1C(=O)NC1(C(=O)O)Cc2ccccc2C1
